Measurements published in patent US20070129433A1, “Diphenylamine derivatives” (priority 2003, published 2007).

Legend:
Human LDL = assay: Antioxidant effect: inhibition of copper-induced oxidation of human LDL (fluorescence); assay type: biochemical; settings: human LDL 120 μg/ml + CuCl2, 37° C., fluorescence difference between 2 h and 24 h readings; from three concentrations
Experimental: Human LDLs placed in aqueous solution in the presence of cupric ions, become spontaneously oxidized on their protein component, apolipoprotein-B. This oxidation makes the particle fluorescent, which is exploited to measure a pharmacological effect.
The reactions and measurements are performed in black 96-well plates. 10 μl of a solution of the test product dissolved in dimethyl sulfoxide are first mixed with 170 μl of a solution of human LDL at a concentration of 120 μg/ml and 20 μl of 100 μM CuCl2. After stirring, the mixture is incubated for 2 hours at 37° C., and a first fluorescence reading is taken (excitation at 360 nm, reading at 460 nm). The mixture is then incubated for a further 22 hours, to take a second reading under the same conditions. The difference is proportionately smaller the greater the anti-oxidant power of the test product. Probucol is used as reference product at a concentration of 10 μM.
The concentrations that inhibit 50% (IC50) of the oxidation are prepared from three concentrations of the test product. They are given in Table I below for some of the compounds given as examples below.

fatty Zucker rats = assay: Hypotriglyceridaemiant activity in fatty Zucker rats; assay type: in vivo, rat; settings: 9-week-old male Zucker rats, 300 mg/kg/day p.o. for eight days, plasma after fasting four hours
Experimental: The compound of Example 2 was tested on fatty Zucker rats (Zucker L. M. et al., 1961, Fatty a new mutation in the rat, J. Hered., 52: 275278). This animal is hyperphagic, obese and hyperinsulinaemic. It develops resistance to insulin, it is hyperlipidaemic, and has a large hypertriglyceridaemia. 9-week-old male Zucker rats were treated for eight days with this compound at a dose of 300 mg/kg/day p.o. After fasting for four hours, a blood sample is taken to recover the plasma. Under these conditions, the compound of Example 2 induces a large reduction in triglycerides, of 55% (p<0.01), and the insulinaemia is down by 59% (p<0.05).

IC50 (Human LDL) [µM] | SMILES | reduction in triglycerides (fatty Zucker rats; p<0.01) [%] | insulinaemia down by (fatty Zucker rats; p<0.05) [%]
10.6 | COc1ccc(Nc2ccc(C(=O)O)cc2)cc1 [Example 2, 4-[(4-Methoxyphenyl)amino]benzoic acid] | 55 | 59
9.7 | O=C(O)c1ccc(Nc2ccc([N+](=O)[O-])cc2)cc1 [Example 13] |  | 

Continued, compound first:

SMILES | IC50 (Human LDL) [µM] | reduction in triglycerides (fatty Zucker rats; p<0.01) [%] | insulinaemia down by (fatty Zucker rats; p<0.05) [%]
COc1ccc(Nc2ccc(C#N)cc2)cc1 [Example 6, 4-[(4-Methoxyphenyl)amino]benzonitrile] | 8.5 |  | 
COc1ccc(Nc2ccc(CO)cc2)cc1 [Example 8, {4-[(4-Methoxyphenyl)amino]phenyl}methanol] | 5.8 |  | 
COc1ccc(Nc2ccc(CC(=O)O)cc2)cc1 [Example 17] | 11.1 |  | 
COc1ccc(Nc2ccc(C(N)=O)cc2)cc1 [Example 42] | 18.6 |  | 
